In one test the target is T1, FtsZ (Mycobacterium tuberculosis, UniProt P9WN95).
T1 sequence (P9WN95 1-379): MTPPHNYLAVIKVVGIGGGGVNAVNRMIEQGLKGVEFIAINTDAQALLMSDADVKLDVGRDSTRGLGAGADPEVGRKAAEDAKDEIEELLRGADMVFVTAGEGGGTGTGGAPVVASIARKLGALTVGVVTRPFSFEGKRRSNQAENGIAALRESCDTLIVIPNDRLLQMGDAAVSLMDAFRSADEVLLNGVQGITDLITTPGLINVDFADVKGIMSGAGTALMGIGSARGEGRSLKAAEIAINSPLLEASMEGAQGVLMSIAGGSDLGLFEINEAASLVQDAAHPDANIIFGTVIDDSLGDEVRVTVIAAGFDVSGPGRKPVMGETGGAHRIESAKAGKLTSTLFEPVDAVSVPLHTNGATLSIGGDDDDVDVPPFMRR
In words: thermal shift assay. It is filed as binding. To be noted: read-out: thermal shift (dTm) at 100 μM, 16 h.

Another test has as its target PheRS (Mycobacterium tuberculosis, UniProt P9WFU3). Nature of the test: ATP consumption assay. It is filed as biochemical.

PheRS, sequence (P9WFU3 whole entry): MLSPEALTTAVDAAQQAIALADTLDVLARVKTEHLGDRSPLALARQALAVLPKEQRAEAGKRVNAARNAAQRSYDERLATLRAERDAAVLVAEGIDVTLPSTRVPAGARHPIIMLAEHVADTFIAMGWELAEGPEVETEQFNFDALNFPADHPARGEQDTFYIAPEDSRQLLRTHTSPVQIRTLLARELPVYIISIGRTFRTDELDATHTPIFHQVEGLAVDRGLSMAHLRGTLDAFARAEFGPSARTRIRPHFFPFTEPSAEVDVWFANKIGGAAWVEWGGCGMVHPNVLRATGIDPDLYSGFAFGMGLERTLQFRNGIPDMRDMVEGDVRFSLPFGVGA
PheRS, sequence (P9WFU1 whole entry partner): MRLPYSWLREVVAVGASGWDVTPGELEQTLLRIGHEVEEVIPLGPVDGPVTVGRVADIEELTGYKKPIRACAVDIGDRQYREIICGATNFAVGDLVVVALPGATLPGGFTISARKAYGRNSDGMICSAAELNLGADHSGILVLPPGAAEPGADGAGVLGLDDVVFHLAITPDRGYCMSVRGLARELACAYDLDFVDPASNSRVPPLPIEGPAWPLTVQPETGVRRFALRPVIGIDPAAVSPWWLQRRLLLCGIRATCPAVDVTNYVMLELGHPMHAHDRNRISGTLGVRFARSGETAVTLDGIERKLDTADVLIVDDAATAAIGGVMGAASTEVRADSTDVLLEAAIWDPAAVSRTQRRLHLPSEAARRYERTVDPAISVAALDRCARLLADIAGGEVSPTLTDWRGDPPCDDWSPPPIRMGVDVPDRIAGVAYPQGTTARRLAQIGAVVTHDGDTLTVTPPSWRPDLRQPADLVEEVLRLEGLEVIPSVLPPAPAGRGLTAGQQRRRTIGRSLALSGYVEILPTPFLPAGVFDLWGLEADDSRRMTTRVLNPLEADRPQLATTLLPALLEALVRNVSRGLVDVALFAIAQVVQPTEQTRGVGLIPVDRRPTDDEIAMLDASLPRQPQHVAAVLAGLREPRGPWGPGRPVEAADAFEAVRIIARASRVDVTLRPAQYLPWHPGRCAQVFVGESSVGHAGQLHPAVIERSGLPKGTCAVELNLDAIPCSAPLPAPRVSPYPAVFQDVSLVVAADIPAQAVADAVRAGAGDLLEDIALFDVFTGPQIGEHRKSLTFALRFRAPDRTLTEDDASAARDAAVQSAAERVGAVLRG

Take `CC(=O)Nc1cc(Nc2cc(NC3CC3)n3ncc(C#N)c3n2)ccc1N(C)CC(=O)Nc1cccc(C(F)(F)F)c1` [GDI-10996]: the ΔTm at 100 µM on FtsZ came to 1.25 °C.
Regarding `O=C(Nc1cccc(-c2nn[nH]n2)c1)c1ccc2nc(-c3ccccc3)[nH]c2c1` [GDI-10928], the IC50 against PheRS worked out at 120 µM. Besides, the ΔTm at 100 µM on FtsZ is 1.84 °C.

Usually IC50 stands for the concentration that inhibits the measured activity by half. The low end stands for higher potency, the high end for lower potency.

For the origin of these results see doi:10.1101/2025.04.28.650819v3 (biorxiv, 2025).
